Measured values as given in patent publication US20050256309A1, “Tri-and bi-cyclic heteroaryl histamine-3 receptor ligands” (priority 2004, published 2005).
Structures can show the parent of a compound that is named as a salt.

## Cc1nc2cc(-c3ccc4nc(CCN5CCC[C@H]5C)ccc4c3)ccc2s1 (as salt: hydrochloride) [Example 14, 6-(2-Methyl-benzothiazol-5-yl)-2-[2-(2R-methyl-pyrrolidin-1-yl)-ethyl]-quinoline]
  melting point: 182 to 183 °C
